{"source": "patent US20120189543A1", "about": "“Compositions and Methods for Detecting and Treating Implant Loosening and Osteolysis” (priority 2009, published 2012)", "key": {"IL-1β mRNA": {"tested_on": "IL-1β mRNA", "experiment": "PMMA particle-induced IL-1β mRNA in cultured human monocytes (real-time RT-PCR)", "details": "4 hours pulse P-Dex 5 μM or free Dex 0.6 μM, PMMA 3 hours; n=3", "protocol": "(§1) Cells were cultured for 24 hours at a cell density of 10^6 cells/mL in a-MEM medium (Invitrogen, Carlsbad, Calif.) supplemented with 10% fetal bovine serum (VWR, West Chester, Pa.) and 1% antibiotic/antimycotic (Invitrogen, Carlsbad, Calif.) in the presence of 10 ng/mL human M-CSF (Peprotech, Rocky Hill, N.J.) in 24-well tissue culture plates (1 mL/well). Cells were then pulsed for 4 hours with P-Dex (5 μM) or free Dex (dexamethasone phosphate sodium, 0.6 μM), washed and replenished with fresh medium. […] After 24 hours, cells were treated +/−PMMA particles (30 particles/cell) for 3 hours. Total cellular RNA was prepared (RNeasy, Qiagen) and analyzed by real-time RT-PCR as previously described for inflammatory cytokines (IL 1-α, IL-1- β)."}, "[1]": {"tested_on": "pro-inflammatory cytokine response (e.g., TNF and IL-1)", "experiment": "Particle-induced pro-inflammatory cytokine response in human monocytes", "details": "pretreatment of PMMA challenged monocytes", "protocol": "as §1"}, "IL-1α mRNA": {"tested_on": "IL-1α mRNA", "experiment": "PMMA particle-induced IL-1α mRNA in cultured human monocytes (real-time RT-PCR)", "details": "4 hours pulse P-Dex 5 μM or free Dex 0.6 μM, PMMA 3 hours; n=3; p<0.05", "protocol": "as §1"}, "[2]": {"tested_on": "PMMA particle implantation site (calvaria)", "parameters": "species or system Swiss Webster mice", "details": "mouse, in vivo", "source_text": "The group injected with PBS was used as a negative control and was given the same dose of P-IRDye. The mice were imaged prior to and daily after contrast agent injection using an XENOGEN IVIS® 200 Series Imaging System (Hopkinton, Mass.) to evaluate the distribution of the HPMA copolymer conjugate continuously for the 6 days."}}, "data": [{"compound": "C[C@@H]1C[C@H]2[C@@H]3CCC4=CC(=O)C=C[C@]4(C)[C@@]3(F)[C@@H](O)C[C@]2(C)[C@@]1(O)C(=O)COP(=O)([O-])[O-].[Na+].[Na+]", "note": "[Dex, dexamethasone phosphate sodium]", "values": [{"measurement": "IL-1β mRNA level of PMMA group compared with treated group", "setting": "IL-1β mRNA", "value": "higher (but not significantly)"}, {"measurement": "effect of pretreatment on particle-induced pro-inflammatory cytokine response", "setting": "[1]", "value": "significant repression"}, {"measurement": "IL-1α mRNA level of PMMA group compared with treated group", "setting": "IL-1α mRNA", "value": "significantly higher"}]}, {"compound": "IRDye 800CW-labeled HPMA Copolymer [P-IRDye]", "values": [{"measurement": "NIR signal at particle implantation site, % of the original signal intensity", "setting": "[2]", "value": 60, "unit": "%"}, {"measurement": "persistence of the P-IRDye signal", "setting": "[2]", "value": "over 7 days"}]}]}
